Assays:
[1] = tested on: Embryoid bodies from the H1 or H9 line
Protocol: Embryoid bodies from the H1 or H9 line were treated at differentiation day 1-4, 4-6 or 6-8 with 5-aza-deoxy-cytidine, a cytosine analog that affects DNA methylation. Cells were harvested at day 15, and analyzed for cardiac MHC by real-time RT-PCR.
Other reagents examined for an ability to induce cardiomyocyte differentiation included dimethyl sulfoxide (DMSO) and all-trans retinoic acid (RA).

[2] = tested on: hES-derived cardiomyocytes; assay: Chronotropic effects of cardioactive drugs on beating hES-derived cardiomyocytes; assay type: cell-based, human; settings: for chronotropic effect on beating rate: FIG. 2 Panels B-E
Protocol: The function of hES-derived cardiomyocytes was tested by determining whether the cardiomyocytes respond appropriately to the chronotropic effects of cardioactive drugs.
When cells were treated with 10^−5 M diltiazem, 100% of the beating areas stopped contraction. […] Thus, the hES cell derived cells respond to cardioactive drugs in a manner appropriate for cells of the cardiomyocyte lineage.

Nc1ncn([C@H]2C[C@H](O)[C@@H](CO)O2)c(=O)n1 [5-aza-deoxy-cytidine]
proportion of beating areas in the culture ([1]; 1 to 10 μM at day 6-8): increased | expression of cardiac α-MHC ([1]; 1 to 10 μM at day 6-8, harvested day 15, real-time RT-PCR): significantly increased

C[S+](C)[O-] [DMSO, dimethyl sulfoxide]
beating areas vs non-treated cultures ([1]; 0.5% from days 0-4): fewer beating areas | beating cells ([1]; 0.8% or 1%): absent | α-MHC expression compared with untreated cultures ([1]; DMSO treatment): significant reduction

CC1=C(/C=C/C(C)=C/C=C/C(C)=C/C(=O)O)C(C)(C)CCC1 [RA, all-trans retinoic acid]
toxicity to the cells [1]: toxic | beating cells compared with untreated cultures ([1]; 10^−9 to 10^−5 M, days 4-8, 8-15, or 4-15): no increase in beating cells

COc1ccc([C@@H]2Sc3ccccc3N(CCN(C)C)C(=O)[C@@H]2OC(C)=O)cc1 [diltiazem]
beating rate ([2]; FIG. 2 Panel A, concentration-dependent): inhibited

CC(C)NCC(O)c1ccc(O)c(O)c1 (stereo not shown) [isoprenaline]
chronotropic effect on beating rate [2]: positive chronotropic effects

CNC[C@H](O)c1cccc(O)c1 [phenylephrine]
chronotropic effect on beating rate [2]: positive chronotropic effects

Reference: patent US7897389B2, “Direct differentiation method for making cardiomyocytes from human embryonic stem cells” (Geron Corporation, priority 2008, dated 2011)
